Laboratory results as given in patent US9650395B2, “Antibacterial compounds and methods for use” (PTC Therapeutics, Inc., priority 2011, dated 2017).
In brackets after ≈: the same amount, converted by molar mass.

How the values were obtained:
[1] = tested on: super sensitive Gram-negative Escherichia coli (E. coli) BAS849; assay: Antibacterial activity, microbroth dilution MIC, E. coli BAS849; assay type: cell-based; details: Escherichia coli; E. coli BAS849, microbroth dilution; read-out: MIC, BAS849
[2] = tested on: control Gram-negative E. coli 25922 strain; assay: Antibacterial activity, microbroth dilution MIC, E. coli 25922; assay type: cell-based, Escherichia coli; details: Escherichia coli; E. coli 25922, microbroth dilution; read-out: MIC, 25922
[3] = tested on: Gram-positive Staphylococcus aureus (S. aureus) 29213; assay: Antibacterial activity, microbroth dilution MIC, S. aureus 29213; assay type: cell-based; details: Staphylococcus aureus; S. aureus 29213, microbroth dilution; read-out: MIC, 29213

| Compound | MIC [1] [mg/L] | MIC [2] [mg/L] | MIC [3] [mg/L] |
| --- | --- | --- | --- |
| O=C(O)c1cc(C(=O)O)c(=O)[nH]c1-c1ccc(F)cc1 [Cpd 10, 6-(4-fluorophenyl)-2-oxo-1,2-dihydropyridine-3,5-dicarboxylic acid] | 12.5 to 150 (≈ 45.1 to 541 µM) | 12.5 to 150 (≈ 45.1 to 541 µM) | 12.5 to 150 (≈ 45.1 to 541 µM) |
| CCc1cc(C(=O)O)c(=O)[nH]c1-c1ccc(C#N)cc1 [Cpd 15, 6-(4-cyanophenyl)-5-ethyl-2-oxo-1,2-dihydropyridine-3-carboxylic acid] | 12.5 to 150 (≈ 46.6 to 559 µM) | 12.5 to 150 (≈ 46.6 to 559 µM) | 12.5 to 150 (≈ 46.6 to 559 µM) |
| CCc1cc(C(=O)O)c(=O)[nH]c1-c1cnc(N(C)C)nc1 [Cpd 19, 6-[2-(dimethylamino)pyrimidin-5-yl]-5-ethyl-2-oxo-1,2-dihydropyridine-3-carboxylic acid] | 12.5 to 150 (≈ 43.4 to 520 µM) | 12.5 to 150 (≈ 43.4 to 520 µM) | 12.5 to 150 (≈ 43.4 to 520 µM) |
| O=C(O)c1c(O)cc(-c2ccc(N3CCCC3)cc2)[nH]c1=O [Cpd 21, 4-hydroxy-2-oxo-6-[4-(pyrrolidin-1-yl)phenyl]-1,2-dihydropyridine-3-carboxylic acid] | 3.5 to 12.5 (≈ 11.7 to 41.6 µM) | 12.5 to 150 (≈ 41.6 to 499 µM) | 3.5 to 12.5 (≈ 11.7 to 41.6 µM) |
| CCc1cc(C(=O)O)c(=O)[nH]c1-c1ccc(-c2nnn[nH]2)cc1 [Cpd 23, 5-ethyl-2-oxo-6-[4-(1H-tetrazol-5-yl)phenyl]-1,2-dihydropyridine-3-carboxylic acid] | 12.5 to 150 (≈ 40.2 to 482 µM) | 12.5 to 150 (≈ 40.2 to 482 µM) | 12.5 to 150 (≈ 40.2 to 482 µM) |
| CCc1cc(C(=O)O)c(=O)[nH]c1-c1ccc(F)cc1 [Cpd 26, 5-ethyl-6-(4-fluorophenyl)-2-oxo-1,2-dihydropyridine-3-carboxylic acid] | 12.5 to 150 (≈ 47.8 to 574 µM) | 12.5 to 150 (≈ 47.8 to 574 µM) | 12.5 to 150 (≈ 47.8 to 574 µM) |
| CCc1cc(C(=O)O)c(=O)[nH]c1-c1ccc(C)cc1 [Cpd 27, 5-ethyl-6-(4-methylphenyl)-2-oxo-1,2-dihydropyridine-3-carboxylic acid] | < 1 | 12.5 to 150 (≈ 48.6 to 583 µM) | 12.5 to 150 (≈ 48.6 to 583 µM) |
| CCc1c(-c2ccc(C)cc2)[nH]c(=O)c(C(=O)O)c1O [Cpd 28, 5-ethyl-4-hydroxy-6-(4-methylphenyl)-2-oxo-1,2-dihydropyridine-3-carboxylic acid] | < 1 | 12.5 to 150 (≈ 45.7 to 549 µM) | 3.5 to 12.5 (≈ 12.8 to 45.7 µM) |
| CCc1c(-c2ccccc2N2CCCCC2)[nH]c(=O)c(C(=O)O)c1O [Cpd 29, 5-ethyl-4-hydroxy-2-oxo-6-[2-(piperidin-1-yl)phenyl]-1,2-dihydropyridine-3-carboxylic acid] | 1 to 3.5 (≈ 2.92 to 10.2 µM) | 12.5 to 150 (≈ 36.5 to 438 µM) | 1 to 3.5 (≈ 2.92 to 10.2 µM) |
| CCc1cc(C(=O)O)c(=O)[nH]c1-c1ccccc1N1CCCCC1 [Cpd 31, 5-ethyl-2-oxo-6-[2-(piperidin-1-yl)phenyl]-1,2-dihydropyridine-3-carboxylic acid] | 12.5 to 150 (≈ 38.3 to 460 µM) | 12.5 to 150 (≈ 38.3 to 460 µM) | 12.5 to 150 (≈ 38.3 to 460 µM) |
| CCc1c(-c2ccc(OC)cc2C)[nH]c(=O)c(C(=O)O)c1O [Cpd 32, 5-ethyl-4-hydroxy-6-(4-methoxy-2-methylphenyl)-2-oxo-1,2-dihydropyridine-3-carboxylic acid] | 3.5 to 12.5 (≈ 11.5 to 41.2 µM) | 12.5 to 150 (≈ 41.2 to 495 µM) | 3.5 to 12.5 (≈ 11.5 to 41.2 µM) |
| CCc1cc(C(=O)O)c(=O)[nH]c1-c1ccc(OC)cc1C [Cpd 33, 5-ethyl-6-(4-methoxy-2-methylphenyl)-2-oxo-1,2-dihydropyridine-3-carboxylic acid] | 12.5 to 150 (≈ 43.5 to 522 µM) | 12.5 to 150 (≈ 43.5 to 522 µM) | 12.5 to 150 (≈ 43.5 to 522 µM) |
| CCc1cc(C(=O)O)c(=O)[nH]c1-c1ccc(OC)cc1OC [Cpd 34, 6-(2,4-dimethoxyphenyl)-5-ethyl-2-oxo-1,2-dihydropyridine-3-carboxylic acid] | 12.5 to 150 (≈ 41.2 to 495 µM) | 12.5 to 150 (≈ 41.2 to 495 µM) | 12.5 to 150 (≈ 41.2 to 495 µM) |
| CCc1cc(C(=O)O)c(=O)[nH]c1-c1ccc(OC)cc1N1CCCC1 [Cpd 35, 5-ethyl-6-[4-methoxy-2-(pyrrolidin-1-yl)phenyl]-2-oxo-1,2-dihydropyridine-3-carboxylic acid] | 12.5 to 150 (≈ 36.5 to 438 µM) | 12.5 to 150 (≈ 36.5 to 438 µM) | 12.5 to 150 (≈ 36.5 to 438 µM) |
| CCc1c(-c2ccc(OC)cc2OC)[nH]c(=O)c(C(=O)O)c1O [Cpd 36, 6-(2,4-dimethoxyphenyl)-5-ethyl-4-hydroxy-2-oxo-1,2-dihydropyridine-3-carboxylic acid] | 3.5 to 12.5 (≈ 11 to 39.1 µM) | 12.5 to 150 (≈ 39.1 to 470 µM) | 12.5 to 150 (≈ 39.1 to 470 µM) |
| CCc1cc(C(=O)O)c(=O)[nH]c1-c1ccc(N2CCCC2)cc1C [Cpd 37, 5-ethyl-6-[2-methyl-4-(pyrrolidin-1-yl)phenyl]-2-oxo-1,2-dihydropyridine-3-carboxylic acid] | 12.5 to 150 (≈ 38.3 to 460 µM) | 12.5 to 150 (≈ 38.3 to 460 µM) | 12.5 to 150 (≈ 38.3 to 460 µM) |
| CCc1c(-c2ccc(N3CCCC3)cc2C)[nH]c(=O)c(C(=O)O)c1O [Cpd 39, 5-ethyl-4-hydroxy-6-[2-methyl-4-(pyrrolidin-1-yl)phenyl]-2-oxo-1,2-dihydropyridine-3-carboxylic acid] | 3.5 to 12.5 (≈ 10.2 to 36.5 µM) | 12.5 to 150 (≈ 36.5 to 438 µM) | 1 to 3.5 (≈ 2.92 to 10.2 µM) |

| Compound | MIC [1] [mg/L] | MIC [2] [mg/L] | MIC [3] [mg/L] |
| --- | --- | --- | --- |
| CCc1cc(C(=O)O)c(=O)[nH]c1-c1ccc(OC)cc1N(C)C [Cpd 40, 6-[2-(dimethylamino)-4-methoxyphenyl]-5-ethyl-2-oxo-1,2-dihydropyridine-3-carboxylic acid] | 12.5 to 150 (≈ 39.5 to 474 µM) | 12.5 to 150 (≈ 39.5 to 474 µM) | 12.5 to 150 (≈ 39.5 to 474 µM) |
| CCc1cc(C(=O)O)c(=O)[nH]c1-c1ccc(N2CCCCC2)cc1F [Cpd 43, 5-ethyl-6-[2-fluoro-4-(piperidin-1-yl)phenyl]-2-oxo-1,2-dihydropyridine-3-carboxylic acid] | < 1 | 12.5 to 150 (≈ 36.3 to 436 µM) | 12.5 to 150 (≈ 36.3 to 436 µM) |
| CCc1cc(C(=O)O)c(=O)[nH]c1-c1ccccc1N1CCCC1 [Cpd 46, 5-ethyl-2-oxo-6-[2-(pyrrolidin-1-yl)phenyl]-1,2-dihydropyridine-3-carboxylic acid] | 12.5 to 150 (≈ 40 to 480 µM) | 12.5 to 150 (≈ 40 to 480 µM) | 12.5 to 150 (≈ 40 to 480 µM) |
| CCc1c(-c2ccccc2N2CCCC2)[nH]c(=O)c(C(=O)O)c1O [Cpd 47, 5-ethyl-4-hydroxy-2-oxo-6-[2-(pyrrolidin-1-yl)phenyl]-1,2-dihydropyridine-3-carboxylic acid] | 1 to 3.5 (≈ 3.05 to 10.7 µM) | 12.5 to 150 (≈ 38.1 to 457 µM) | 3.5 to 12.5 (≈ 10.7 to 38.1 µM) |
| CCc1c(-c2ccc(OC)cc2N2CCCC2)[nH]c(=O)c(C(=O)O)c1O [Cpd 48, 5-ethyl-4-hydroxy-6-[4-methoxy-2-(pyrrolidin-1-yl)phenyl]-2-oxo-1,2-dihydropyridine-3-carboxylic acid] | 3.5 to 12.5 (≈ 9.77 to 34.9 µM) | 12.5 to 150 (≈ 34.9 to 419 µM) | 3.5 to 12.5 (≈ 9.77 to 34.9 µM) |
| CCc1c(-c2ccc(N3CCCCC3)cc2C)[nH]c(=O)c(C(=O)O)c1O [Cpd 51, 5-ethyl-4-hydroxy-6-[2-methyl-4-(piperidin-1-yl)phenyl]-2-oxo-1,2-dihydropyridine-3-carboxylic acid] | 3.5 to 12.5 (≈ 9.82 to 35.1 µM) | 12.5 to 150 (≈ 35.1 to 421 µM) | 3.5 to 12.5 (≈ 9.82 to 35.1 µM) |
| CCc1cc(C(=O)O)c(=O)[nH]c1-c1ccc(N2CCCCC2)cc1C [Cpd 52, 5-ethyl-6-[2-methyl-4-(piperidin-1-yl)phenyl]-2-oxo-1,2-dihydropyridine-3-carboxylic acid] | 12.5 to 150 (≈ 36.7 to 441 µM) | 12.5 to 150 (≈ 36.7 to 441 µM) | 12.5 to 150 (≈ 36.7 to 441 µM) |
| CCc1cc(C(=O)O)c(=O)[nH]c1-c1ccccc1N(C)C [Cpd 54, 6-[2-(dimethylamino)phenyl]-5-ethyl-2-oxo-1,2-dihydropyridine-3-carboxylic acid] | 12.5 to 150 (≈ 43.7 to 524 µM) | 12.5 to 150 (≈ 43.7 to 524 µM) | 12.5 to 150 (≈ 43.7 to 524 µM) |
| CCc1c(-c2ccc(N(C)C)cc2C)[nH]c(=O)c(C(=O)O)c1O [Cpd 56, 6-[4-(dimethylamino)-2-methylphenyl]-5-ethyl-4-hydroxy-2-oxo-1,2-dihydropyridine-3-carboxylic acid] | 3.5 to 12.5 (≈ 11.1 to 39.5 µM) | 12.5 to 150 (≈ 39.5 to 474 µM) | 3.5 to 12.5 (≈ 11.1 to 39.5 µM) |
| CCc1cc(C(=O)O)c(=O)[nH]c1-c1ccc(N(C)C)cc1C [Cpd 57, 6-[4-(dimethylamino)-2-methylphenyl]-5-ethyl-2-oxo-1,2-dihydropyridine-3-carboxylic acid] | 12.5 to 150 (≈ 41.6 to 499 µM) | 12.5 to 150 (≈ 41.6 to 499 µM) | 12.5 to 150 (≈ 41.6 to 499 µM) |
| CCc1c(-c2ccccc2N(C)C)[nH]c(=O)c(C(=O)O)c1O [Cpd 58, 6-[2-(dimethylamino)phenyl]-5-ethyl-4-hydroxy-2-oxo-1,2-dihydropyridine-3-carboxylic acid] | 3.5 to 12.5 (≈ 11.6 to 41.3 µM) | 12.5 to 150 (≈ 41.3 to 496 µM) | 3.5 to 12.5 (≈ 11.6 to 41.3 µM) |
| CCc1cc(C(=O)O)c(=O)[nH]c1-c1ccc(N2CCCCC2)cc1OC [Cpd 59, 5-ethyl-6-[2-methoxy-4-(piperidin-1-yl)phenyl]-2-oxo-1,2-dihydropyridine-3-carboxylic acid] | 12.5 to 150 (≈ 35.1 to 421 µM) | 12.5 to 150 (≈ 35.1 to 421 µM) | 12.5 to 150 (≈ 35.1 to 421 µM) |
| CCc1c(-c2ccc(OC)cc2N(C)C)[nH]c(=O)c(C(=O)O)c1O [Cpd 60, 6-[2-(dimethylamino)-4-methoxyphenyl]-5-ethyl-4-hydroxy-2-oxo-1,2-dihydropyridine-3-carboxylic acid] | 3.5 to 12.5 (≈ 10.5 to 37.6 µM) | 12.5 to 150 (≈ 37.6 to 451 µM) | 3.5 to 12.5 (≈ 10.5 to 37.6 µM) |
| CCc1c(-c2ccc(N(C)C)cc2OC)[nH]c(=O)c(C(=O)O)c1O [Cpd 61, 6-[4-(dimethylamino)-2-methoxyphenyl]-5-ethyl-4-hydroxy-2-oxo-1,2-dihydropyridine-3-carboxylic acid] | 3.5 to 12.5 (≈ 10.5 to 37.6 µM) | 12.5 to 150 (≈ 37.6 to 451 µM) | 3.5 to 12.5 (≈ 10.5 to 37.6 µM) |
| CCc1cc(C(=O)O)c(=O)[nH]c1-c1ccc(N(C)C)cc1OC [Cpd 62, 6-[4-(dimethylamino)-2-methoxyphenyl]-5-ethyl-2-oxo-1,2-dihydropyridine-3-carboxylic acid] | 12.5 to 150 (≈ 39.5 to 474 µM) | 12.5 to 150 (≈ 39.5 to 474 µM) | 12.5 to 150 (≈ 39.5 to 474 µM) |
| CCc1c(-c2ccc(N(C)C)c(C)c2)[nH]c(=O)c(C(=O)O)c1O [Cpd 63, 6-[4-(dimethylamino)-3-methylphenyl]-5-ethyl-4-hydroxy-2-oxo-1,2-dihydropyridine-3-carboxylic acid] | 1 to 3.5 (≈ 3.16 to 11.1 µM) | 12.5 to 150 (≈ 39.5 to 474 µM) | 3.5 to 12.5 (≈ 11.1 to 39.5 µM) |
| CCc1cc(C(=O)O)c(=O)[nH]c1-c1ccc(N(C)C)c(OC)c1 [Cpd 64, 6-[4-(dimethylamino)-3-methoxyphenyl]-5-ethyl-2-oxo-1,2-dihydropyridine-3-carboxylic acid] | 3.5 to 12.5 (≈ 11.1 to 39.5 µM) | 12.5 to 150 (≈ 39.5 to 474 µM) | 12.5 to 150 (≈ 39.5 to 474 µM) |
